Laboratory results as given in patent US4438142A, “Pharmaceutical combination” (Burroughs Wellcome Co., priority 1982, dated 1984).

Tested on: rat
Assay: Analgesic Activity: Rat Hot Plate Assay
Assay type: in vivo
Conditions: for ED50: po, 1 h, p.o. in rat, single substance, 60 min prior to testing, plate 45±1.0° C., ± standard error
From the text: The rat hot plate assay incorporated two modifications of the mouse hot plate assay originally described by Eddy et al., J. Pharmacol. Exp. Ther. 98, 121-137 (1950). The first modification was enlargement of the diameter of the cylindrical (water filled) copper plate to 25.0 cm to accommodate rats instead of mice. The second modification was the use of a temperature controller to regulate a 250 watt infrared heat lamp which was activated via a thermistor probe attached to the under surface of the copper plate, the temperature of which was thus maintained at 45±1.0° C. (N=28 measurements of the plate temperature under experimental conditions). The time required for a rat placed on the hot plate to respond by lifting, shaking or licking either of its hind or forelimbs was recorded in tenths of a second. Only animals responding in pretest within 6-13 seconds were used in the studies. The combination, comprising an intimate mixture of codeine phosphate with compound I, was suspended in 0.5% sodium carboxymethylcellulose and administered orally, by gavage, in a volume of 1.00 ml/100 g.b. wt. 60 min prior to testing. […] The reaction time of 18.3 seconds represented the sum of the mean pretest times of 40 untreated rats plus the time of 3 standard deviations of the mean. ED50 's and their standard errors were estimated from a graph of the dose-response curves using the method of Miller and Tainter (Proc. Soc. Exp. Biol. Med. 57, 261-262 (1944). Following this procedure the analgesic activities of codeine, compound I and the combination (codeine+compound I) were compared (Table I).

COc1ccc2c3c1O[C@H]1[C@@H](O)C=C[C@H]4[C@@H](C2)N(C)CC[C@@]341 [Codeine Phosphate, reference compound]
ED50: 57 ± 35.3 mg/kg

O=C1CCCN1c1ccc2c(c1)OCO2 [Compound I, 1-(1,3-benzodioxol)-5-yl-2-pyrrolidinone]
ED50: 86 ± 16.5 mg/kg
potentiation of the analgesic activity of codeine (upon oral administration, compound I with codeine, species not stated): four to seven
